Source: patent publication US20110312961A1, “2,5-Disubstituted Morpholine Orexin REceptor Antagonists” (priority 2008, published 2011)

Experiments:
[1] = test system: ovalbumin-sensitized mice; assay: Airway hyperresponsiveness (Penh) and BALF cell counts; format: in vivo, mouse; conditions: for methacholine-induced increase in Penh values: FIG. 21
Method: Using the method of Hamelmann et al, (2S,3R)—N-2-((3-pyridinyl)methyl)-1-azabicyclo[2.2.2]oct-3-yl)-3,5-difluorobenzamide was evaluated for possible inhibition of airway hyper-responsiveness in mice. Briefly, ovalbumin (OVA)-sensitized animals, 12 animals per group, were challenged by nasal inhalation with aerosolized 5% OVA for 25 min on days 21, 23, and 25. The mice were treated with vehicle or (2S,3R)—N-2-((3-pyridinyl)methyl)-1-azabicyclo[2.2.2]oct-3-yl)-3,5-difluorobenzamide subcutaneously (s.c.) twice daily from day 21 to day 26 or once daily intratracheally (i.t.), preceding ovalbumin aerosol challenge by 30 min on days 21, 23 and 25 as well as methacholine challenge or bronchoalveolar lavage fluids (BALF) harvest on day 26. Dexamethasone, the reference standard, was administered at 3 mg/kg orally (p.o.) once daily 60 min before OVA challenge on day 21, 23 and 25 and 60 min before methacholine provocation or BALF harvest on day 26. Noninvasive measurements of airway responsiveness were performed by using whole body plethysmography, in which increases in enhanced pause (Penh) serve as an index of airway obstruction. Responses to inhaled methacholine were measured and calculated as percentage of respective baseline values. Unpaired Students t-test was used for comparison between the vehicle control and the sham group; one-way ANOVA and Dunnett's post-hoc analyses were applied for comparison between the vehicle control and treated groups. Statistical significance is considered at P<0.05.

normal rats = assay: Novel object recognition (NOR) task; format: in vivo, rat; conditions: for Minimum Effective Dose (MED): oral, rats (FIG. 2)
Method: Memory was assessed by using the three-trial novel object recognition test. On the first day (exploratory trial), rats were allowed to explore an open arena (44.5×44.5×30.5 cm) for 6 min. On the second day (acquisition trial), rats were allowed to explore the same arena in the presence of two identical objects (both object A) for 3 minutes. On the third day (retention or recall trial), performance was evaluated by allowing the same animal to re-explore the arena for 3 minutes in the presence of two different objects: the familiar object A and a novel object B. An inter-trial interval of 24 hours was imposed between the three NOR trials. Recognition memory was assessed by comparing the time spent exploring a novel (object B) versus a familiar (object A) object during the recall trial. Recognition index was assessed for each animal and expressed as a ratio ((time B/time A+time B)×100).

[2] = biological target: T1, rat native α4β2 receptors (Rattus norvegicus, UniProt P09483+P12390); assay: Radioligand binding, rat cortex membranes (α4β2); conditions: read-out: Ki, inhibition of [3H]epibatidine binding to rat native α4β2 receptors
T1 construct: rat native α4β2 receptors; from tissue; host or cells: rat (female Sprague-Dawley) cerebral cortex membranes
T1 sequence (P09483 31-630): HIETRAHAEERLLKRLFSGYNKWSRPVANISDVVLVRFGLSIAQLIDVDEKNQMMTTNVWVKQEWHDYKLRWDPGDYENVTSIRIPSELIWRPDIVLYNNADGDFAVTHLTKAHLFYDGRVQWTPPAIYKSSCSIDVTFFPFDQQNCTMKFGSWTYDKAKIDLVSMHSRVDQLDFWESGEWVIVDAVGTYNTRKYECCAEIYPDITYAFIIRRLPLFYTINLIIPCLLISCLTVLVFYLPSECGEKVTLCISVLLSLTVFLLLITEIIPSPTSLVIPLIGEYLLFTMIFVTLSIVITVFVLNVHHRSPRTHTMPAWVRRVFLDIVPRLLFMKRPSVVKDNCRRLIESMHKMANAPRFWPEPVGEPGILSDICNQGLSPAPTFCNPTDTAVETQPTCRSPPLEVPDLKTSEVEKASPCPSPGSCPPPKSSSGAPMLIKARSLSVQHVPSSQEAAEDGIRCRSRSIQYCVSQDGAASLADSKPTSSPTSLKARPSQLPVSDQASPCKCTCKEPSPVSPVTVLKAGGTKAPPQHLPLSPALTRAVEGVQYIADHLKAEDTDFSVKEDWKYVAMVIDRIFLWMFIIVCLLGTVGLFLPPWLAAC
T1 sequence (P12390 25-500): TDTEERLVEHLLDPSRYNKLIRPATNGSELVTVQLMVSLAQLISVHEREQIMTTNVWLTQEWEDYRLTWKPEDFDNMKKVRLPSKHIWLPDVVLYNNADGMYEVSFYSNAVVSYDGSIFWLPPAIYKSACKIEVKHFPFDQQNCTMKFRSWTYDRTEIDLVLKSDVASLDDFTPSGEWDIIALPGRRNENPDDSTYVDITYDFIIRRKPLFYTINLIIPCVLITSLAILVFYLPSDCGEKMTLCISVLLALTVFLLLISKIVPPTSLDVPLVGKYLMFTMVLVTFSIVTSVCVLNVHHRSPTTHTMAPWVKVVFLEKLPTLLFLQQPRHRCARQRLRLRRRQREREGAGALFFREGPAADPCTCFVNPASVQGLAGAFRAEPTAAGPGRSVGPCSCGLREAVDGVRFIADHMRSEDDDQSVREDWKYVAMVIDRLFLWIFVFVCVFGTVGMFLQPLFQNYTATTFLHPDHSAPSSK
Method: Preparation of Membranes from Rat Cortex: Rats (Female, Sprague-Dawley), weighing 150-250 g, were maintained on a 12 h light/dark cycle and were allowed free access to water and food supplied by PMI Nutrition International, Inc. Animals were anesthetized with 70% CO2, and then decapitated. Brains were removed and placed on an ice-cold platform. The cerebral cortex was removed and placed in 20 volumes (weight:volume) of ice-cold preparative buffer (137 mM NaCl, 10.7 mM KCl, 5.8 mM KH2PO4, 8 mM Na2HPO4, 20 mM HEPES (free acid), 5 mM iodoacetamide, 1.6 mM EDTA, pH 7.4); PMSF, dissolved in methanol to a final concentration of 100 μM, was added and the suspension was homogenized by Polytron. […]
On the day of the assay, the frozen membranes were thawed and spun at 48,000×g for 20 min. […] Protein concentrations were determined using a Pierce BCA Protein Assay Kit, with bovine serum albumin as the standard (Pierce Chemical Company, Rockford, Ill.).
[…] Filters were then counted to determine radioactivity bound to the membranes by liquid scintillation counting (2200CA Tri-Carb LSC, Packard Instruments, 50% efficiency or Wallac Trilux 1450 MicroBeta, 40% efficiency, Perkin Elmer).
Data were expressed as disintegrations per minute (DPMs). […] Ki values were calculated using the Cheng-Prussof equation (1973): […]

[3] = biological target: T2, human recombinant α4β2 nicotinic receptors (Homo sapiens, UniProt P17787+P43681); assay: [3H]-nicotine radioligand binding, SH-EP1/human α4β2 membranes; conditions: read-out: inhibition of [3H]-nicotine binding to human recombinant α4β2 nicotinic receptors
T2 construct: expressed in transfected cells; host or cells: SH-EP1 clonal cells
T2 sequence (P43681 29-627 limits assumed): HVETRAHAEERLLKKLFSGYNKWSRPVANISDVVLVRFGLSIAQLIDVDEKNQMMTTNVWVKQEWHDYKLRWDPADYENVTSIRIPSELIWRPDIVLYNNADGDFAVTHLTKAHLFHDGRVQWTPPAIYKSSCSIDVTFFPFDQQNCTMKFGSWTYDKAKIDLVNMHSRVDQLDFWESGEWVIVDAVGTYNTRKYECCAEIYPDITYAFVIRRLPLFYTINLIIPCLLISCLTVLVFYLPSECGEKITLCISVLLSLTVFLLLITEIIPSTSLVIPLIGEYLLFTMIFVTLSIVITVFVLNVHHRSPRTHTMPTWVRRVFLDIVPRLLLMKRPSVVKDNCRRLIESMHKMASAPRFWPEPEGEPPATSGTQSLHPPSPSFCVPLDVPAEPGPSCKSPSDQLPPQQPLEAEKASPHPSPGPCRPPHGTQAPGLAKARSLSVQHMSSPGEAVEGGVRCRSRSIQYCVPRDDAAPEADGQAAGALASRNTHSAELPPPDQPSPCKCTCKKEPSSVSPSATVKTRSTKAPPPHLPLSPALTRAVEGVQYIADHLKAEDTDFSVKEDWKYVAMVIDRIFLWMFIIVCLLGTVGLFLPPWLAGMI
T2 sequence (P17787 26-502): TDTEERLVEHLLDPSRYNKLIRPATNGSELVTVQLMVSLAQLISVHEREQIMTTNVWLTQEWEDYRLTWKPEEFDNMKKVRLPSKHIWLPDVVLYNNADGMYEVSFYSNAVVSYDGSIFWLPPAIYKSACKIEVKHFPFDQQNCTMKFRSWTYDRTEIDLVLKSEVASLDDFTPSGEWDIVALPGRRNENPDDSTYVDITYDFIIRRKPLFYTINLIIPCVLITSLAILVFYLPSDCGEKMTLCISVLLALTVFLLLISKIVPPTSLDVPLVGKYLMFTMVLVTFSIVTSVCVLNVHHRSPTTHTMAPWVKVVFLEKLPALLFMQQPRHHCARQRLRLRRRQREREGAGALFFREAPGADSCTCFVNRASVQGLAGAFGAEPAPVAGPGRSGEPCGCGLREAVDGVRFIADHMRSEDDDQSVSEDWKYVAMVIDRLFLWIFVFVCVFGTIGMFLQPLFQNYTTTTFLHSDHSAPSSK
Method: Preparation of membranes from SH-EP1/human α4β2 clonal cells: Cell pellets from 40 150 mm culture dishes were pooled, and homogenized by Polytron (Kinematica GmbH, Switzerland) in 20 milliliters of ice-cold preparative buffer. The homogenate was centrifuged at 48,000 g for 20 minutes at 4° C. The resulting pellet was re-suspended in 20 mL of ice-cold preparative buffer and stored at −20° C.
On the day of the assay, the frozen membranes were thawed and spun at 48,000×g for 20 min. The supernatant was decanted and discarded. The pellet was resuspended in Dulbecco's phosphate buffered saline (PBS, Life Technologies) pH 7.4 and homogenized with the Polytron for 6 seconds. Protein concentrations were determined using a Pierce BCA Protein Assay Kit, with bovine serum albumin as the standard (Pierce Chemical Company, Rockford, Ill.).
Membrane preparations (approximately 50 μg for human and 200-300 μg protein for rat α4β2) were incubated in PBS (50 μL and 100 μL respectively) in the presence of competitor compound (0.01 nM to 100 μM) and 5 nM [^3H]nicotine for 2-3 hours on ice. […] Filters were then counted to determine radioactivity bound to the membranes by liquid scintillation counting (2200CA Tri-Carb LSC, Packard Instruments, 50% efficiency or Wallac Trilux 1450 MicroBeta, 40% efficiency, Perkin Elmer).
Data were expressed as disintegrations per minute (DPMs). […]

O=C(N[C@@H]1C2CCN(CC2)[C@H]1Cc1cccnc1)c1cc(F)cc(F)c1 [Compound A]
methacholine-induced increase in Penh values ([1]; 10 mg/kg IT qd): significant inhibition | monocytes in BALF ([1]; 10 mg/kg SC): reduced | methacholine-induced increase in Penh values ([1]; 0.1, 1, and 10 mg/kg bid s.c.): significant inhibition | airway hyper-responsiveness ([1]; 0.1, 1 and 10 mg/kg bid s.c. and 10 mg/kg i.t., multiple administrations): significant protection against airway hyper-responsiveness | total WBC and eosinophils in BALF ([1]; 0.1 and 1 mg/kg SC): significantly reduced | lymphocytes in BALF ([1]; 0.1 and 1 mg/kg SC as well as 10 mg/kg IT): reduced | eosinophils and white blood cells in BALF ([1]; multiple administrations, lacks a consistent dose-response relationship): significant reduction | lowest dose with statistically significant effect (normal rats; NOR vs. dose, FIG. 1): 0.1 mg/kg | lowest dose with statistically significant effect (normal rats; NOR, FIGS. 1-4): 0.03 µM/kg | effects observed out to, after dosing (normal rats; NOR, FIGS. 1-4, dose not given in the sentence): ≤ 18 h | lowest dose with statistically significant effect (normal rats; NOR, determination of minimum effective dose, FIG. 2): 0.03 mg/kg | Minimum Effective Dose (MED) (normal rats; NOR, listed as (2S,3R)-N-2-((3-pyridinyl)methyl)-1-azabicyclo[2.2.2]oct-3-yl)-3,5-difluorobenza): MED = 0.084 μmol/kg | Minimum Effective Dose (MED) (normal rats; NOR, listed as (2S,3R)—N-2-((3-pyridinyl)methyl)-1-azabicyclo[2.2.2]oct-3-yl)-3,5-difluorobenza): 0.084 µmol/kg | effect in "recall only" session (normal rats; single oral administration of 0.28 μmol/kg on day 3): demonstrated pro-cognitive effects | Ki [2]: 4.12 µM | Ki [3]: 1.47 µM
